Data published in patent publication US20230391764A1, “BENZOTHIAZOLYL BICYCLO[1.1.1]PENTANE DERIVATIVES FOR THE TREATMENT AND PROPHYLAXIS OF HEPATITIS B VIRUS INFECTION” (Hoffmann-La Roche Inc., priority 2021, published 2023).

What was measured:
Assay type in all cases: cell-based
HBeAg = assay: PHH HBV natural infection assay, HBeAg (alphalisa); settings: Hepatitis B virus, 72 h, read-out: HBeAg IC50
Protocol: (§1) Detailed procedures regarding primary human hepatocyte (PHH) HBV natural infection assay are described as below. One tube of frozen PHH (10 million cells) is thawed in 37° C. water bath and then transferred to 20 mL of PHH thawing medium (Sigma, InVitroGRO HT Medium, Cat. S03319) with gently mixing. The cells were then centrifuged at […] for 5 min, the supernatant was discarded and the tube was refilled with 25 mL of PHH plating medium (Sigma, InVitroGRO CP Medium, Cat. S03317). The tube was shaken very gently to re-suspend all cells, and then 50 μl of cells were transferred to each well 384-well collagen I coated plate with appropriate liquid handling equipment, e.g. Integra VIAFLO384 or Agilent Bravo. The cells were then cultured for 24 hours in a cell incubator. For HBV infection, after PHH attachment on the culture plate, the plating medium was removed and replenished with PHH culture medium containing HBV virus. The PHH culture medium was prepared with Dulbecco's Modified Eagle Medium (DMEM)/F12 (1:1 in volume ratio) containing 10% fetal bovine serum (Gibco, Cat.10099141), 5 ng/mL human epidermal growth factor (Gibco, Cat.PHG0311L), 20 ng/mL dexamethasone (Sigma, Cat.D4902-100 mg), 250 ng/mL human recombinant insulin (Gibco, Cat.41400045) and 100 U/mL penicillin. HBV virus at 200 genome equivalent (GE) per cell with 4% PEG8000 (Sigma, Cat.P1458) containing culture medium were added to the PHH culture medium for infection. The cells were then cultured for 24 hours in cell incubator. Then the cell culture supernatant was removed. The HBV-infected PHH were cultured with sandwich culture method with PHH culture medium containing 1% DMSO and 0.25 mg/mL matrix gel for 72 hours. The supernatant was then refreshed with PHH culture medium containing different concentrations of testing compounds for two times with 72-hour interval. At the end of treatment, the supernatant was collected for viral markers measurements, including HBsAg, HBeAg, HBV DNA and cytotoxicity. HBsAg and HBeAg were detected using alphalisa method using their specific antibodies. For HBV DNA detection, HBV DNA Quantitative Fluorescence Diagnostic Kit (Sansure Biotech Inc.) was used following the manufacture's protocol. Cytotoxicity was determined using Cell Counting Kit-8 (CCK8, Dojindo Molecular Technologies, Inc.).
(§2) The compounds of the present invention were tested for their capacity to inhibit HBsAg and HBeAg as described herein.

HBsAg = assay: PHH HBV natural infection assay, HBsAg (alphalisa); settings: Hepatitis B virus, 72 h, read-out: HBsAg IC50
Protocol: as §1, §2

[1] = PHH natural infection assay, cytotoxicity (Cell Counting Kit-8); settings: human; HBV-infected PHH, CCK8
Protocol: as §1

C[C@H](c1ccc(C(=O)NC23CC(c4nc5ccc(Cl)cc5s4)(C2)C3)o1)S(C)(=O)=O (single isomer, unassigned) [Example 56a]
IC50 (HBeAg): 230 nM | IC50 (HBsAg): 230 nM | CC50 at 144 h [1]: 15000 nM

C[C@@H](c1ccc(C(=O)NC23CC(c4nc5ccc(Cl)cc5s4)(C2)C3)o1)S(C)(=O)=O (single isomer, unassigned) [Example 56b]
IC50 (HBeAg): 160 nM | IC50 (HBsAg): 190 nM | CC50 at 144 h [1]: 14700 nM

CS(=O)(=O)C1(c2ccc(C(=O)NC34CC(c5nc6ccc(Br)cc6s5)(C3)C4)o2)CC1 [Example 2, N-[1-(6-bromo-1,3-benzothiazol-2-yl)-3-bicyclo[1.1.1]pentanyl]-5-(1-methylsulfonylcyclopropyl)furan-2-carboxamide]
IC50 (HBeAg): 110 nM | IC50 (HBsAg): 170 nM | CC50 at 144 h [1]: 5850 nM

CS(=O)(=O)C1(c2nsc(C(=O)NC34CC(c5nc6ccc(Br)cc6s5)(C3)C4)n2)CC1 [Example 4]
IC50 (HBeAg): 50 nM | IC50 (HBsAg): 70 nM | CC50 at 144 h [1]: 4220 nM

CS(=O)(=O)C1(c2ccc(C(=O)NC34CC(c5nc6cc(Br)ccc6s5)(C3)C4)o2)CC1 [Example 6, N-(3-(5-bromobenzo[d]thiazol-2-yl)bicyclo[1.1.1]pentan-1-yl)-5-(1-(methylsulfonyl)cyclopropyl)furan-2-carboxamide]
IC50 (HBeAg): 100 nM | IC50 (HBsAg): 170 nM | CC50 at 144 h [1]: 6030 nM

CS(=O)(=O)C1(c2nsc(C(=O)NC34CC(c5nc6cc(Br)ccc6s5)(C3)C4)n2)CC1 [Example 7]
IC50 (HBeAg): 60 nM | IC50 (HBsAg): 100 nM | CC50 at 144 h [1]: 8520 nM

CS(=O)(=O)C1(c2ccc(C(=O)NC34CC(c5nc6ccc(C#N)cc6s5)(C3)C4)o2)CC1 [Example 8]
IC50 (HBeAg): 720 nM | IC50 (HBsAg): 790 nM | CC50 at 144 h [1]: 12500 nM

C#Cc1ccc2nc(C34CC(NC(=O)c5ccc(C6(S(C)(=O)=O)CC6)o5)(C3)C4)sc2c1 [Example 10]
IC50 (HBeAg): 270 nM | IC50 (HBsAg): 370 nM | CC50 at 144 h [1]: 11000 nM

CS(=O)(=O)C1(c2ccc(C(=O)NC34CC(c5nc6ccc(F)cc6s5)(C3)C4)o2)CC1 [Example 11]
IC50 (HBeAg): 360 nM | IC50 (HBsAg): 480 nM | CC50 at 144 h [1]: 16300 nM

CS(=O)(=O)Cc1ccc(C(=O)NC23CC(c4nc5ccc(Cl)cc5s4)(C2)C3)o1 [Example 13]
IC50 (HBeAg): 800 nM | IC50 (HBsAg): 1020 nM | CC50 at 144 h [1]: > 50000 nM

CCC(c1ccc(C(=O)NC23CC(c4nc5ccc(Cl)cc5s4)(C2)C3)o1)S(C)(=O)=O (stereo not drawn) [Example 14]
IC50 (HBeAg): 150 nM | IC50 (HBsAg): 200 nM | CC50 at 144 h [1]: > 10000 nM

CS(=O)(=O)C1(c2ccc(C(=O)NC34CC(c5nc6ccc(Cl)cc6s5)(C3)C4)o2)CC1 [Example 15]
IC50 (HBeAg): 160 nM | IC50 (HBsAg): 210 nM | CC50 at 144 h [1]: 6330 nM

CC(C)(c1ccc(C(=O)NC23CC(c4nc5ccc(Cl)cc5s4)(C2)C3)o1)S(C)(=O)=O [Example 16]
IC50 (HBeAg): 240 nM | IC50 (HBsAg): 290 nM | CC50 at 144 h [1]: 3760 nM

CC(c1ccc(C(=O)NC23CC(c4nc5ccc(Cl)cc5s4)(C2)C3)o1)S(C)(=O)=O (stereo not drawn) [Example 17, N-[3-(6-chloro-1,3-benzothiazol-2-yl)-1-bicyclo[1.1.1]pentanyl]-5-(1-methylsulfonylethyl)furan-2-carboxamide]
IC50 (HBeAg): 150 nM | IC50 (HBsAg): 170 nM | CC50 at 144 h [1]: 14600 nM

CC(C)(c1ncc(C(=O)NC23CC(c4nc5ccc(Cl)cc5s4)(C2)C3)o1)S(C)(=O)=O [Example 22]
IC50 (HBeAg): 470 nM | IC50 (HBsAg): 720 nM | CC50 at 144 h [1]: 7550 nM

CC(C)(c1cc(C(=O)NC23CC(c4nc5ccc(Cl)cc5s4)(C2)C3)sn1)S(C)(=O)=O [Example 27]
IC50 (HBeAg): 650 nM | IC50 (HBsAg): 840 nM | CC50 at 144 h [1]: 8550 nM

CC(c1nsc(C(=O)NC23CC(c4nc5ccc(Cl)cc5s4)(C2)C3)n1)S(C)(=O)=O (stereo not drawn) [Example 31]
IC50 (HBeAg): 630 nM | IC50 (HBsAg): 740 nM | CC50 at 144 h [1]: 5710 nM

CC(C)(c1nsc(C(=O)NC23CC(c4nc5ccc(Cl)cc5s4)(C2)C3)n1)S(C)(=O)=O [Example 32]
IC50 (HBeAg): 330 nM | IC50 (HBsAg): 430 nM | CC50 at 144 h [1]: 2950 nM

CC(n1ccc(C(=O)NC23CC(c4nc5ccc(Cl)cc5s4)(C2)C3)n1)S(C)(=O)=O (stereo not drawn) [Example 34]
IC50 (HBeAg): 390 nM | IC50 (HBsAg): 440 nM | CC50 at 144 h [1]: 7010 nM

CS(=O)(=O)C(Br)c1ccc(C(=O)NC23CC(c4nc5cc(Cl)ccc5s4)(C2)C3)o1 (stereo not drawn) [Example 43]
IC50 (HBeAg): 480 nM | IC50 (HBsAg): 500 nM | CC50 at 144 h [1]: 22800 nM

CCC(c1ccc(C(=O)NC23CC(c4nc5cc(Cl)ccc5s4)(C2)C3)o1)S(C)(=O)=O (stereo not drawn) [Example 44]
IC50 (HBeAg): 160 nM | IC50 (HBsAg): 230 nM | CC50 at 144 h [1]: 20400 nM

CC(C)(c1ccc(C(=O)NC23CC(c4nc5cc(Cl)ccc5s4)(C2)C3)o1)S(C)(=O)=O [Example 45]
IC50 (HBeAg): 250 nM | IC50 (HBsAg): 390 nM | CC50 at 144 h [1]: 9940 nM

CC(c1ccc(C(=O)NC23CC(c4nc5cc(Cl)ccc5s4)(C2)C3)o1)S(C)(=O)=O (stereo not drawn) [Example 46]
IC50 (HBeAg): 230 nM | IC50 (HBsAg): 370 nM | CC50 at 144 h [1]: 15300 nM

CS(=O)(=O)C1(c2ccc(C(=O)NC34CC(c5nc6cc(Cl)ccc6s5)(C3)C4)o2)CC1 [Example 47]
IC50 (HBeAg): 220 nM | IC50 (HBsAg): 320 nM | CC50 at 144 h [1]: 6620 nM

C[S+]([O-])C(C)(C)c1ccc(C(=O)NC23CC(c4nc5cc(Cl)ccc5s4)(C2)C3)o1 (stereo not drawn) [Example 50]
IC50 (HBeAg): 80 nM | IC50 (HBsAg): 100 nM | CC50 at 144 h [1]: 1640 nM

CC(c1ccn(C(=O)NC23CC(c4nc5ccc(Cl)cc5s4)(C2)C3)n1)S(C)(=O)=O (stereo not drawn) [Example 58, N-[3-(6-chloro-1,3-benzothiazol-2-yl)-1-bicyclo[1.1.1]pentanyl]-3-(1-methylsulfonylethyl)pyrazole-1-carboxamide]
IC50 (HBeAg): 240 nM | IC50 (HBsAg): 340 nM | CC50 at 144 h [1]: 6060 nM

CC(C)(c1ccn(C(=O)NC23CC(c4nc5ccc(Cl)cc5s4)(C2)C3)n1)S(C)(=O)=O [Example 60]
IC50 (HBeAg): 90 nM | IC50 (HBsAg): 122 nM | CC50 at 144 h [1]: 4820 nM

CC(C)(c1ccn(C(=O)NC23CC(c4nc5cc(Br)ccc5s4)(C2)C3)n1)S(C)(=O)=O [Example 61]
IC50 (HBeAg): 80 nM | IC50 (HBsAg): 110 nM | CC50 at 144 h [1]: 2090 nM

CS(=O)(=O)C1(c2ccn(C(=O)NC34CC(c5nc6cc(Br)ccc6s5)(C3)C4)n2)CC1 [Example 62]
IC50 (HBeAg): 40 nM | IC50 (HBsAg): 70 nM | CC50 at 144 h [1]: 3830 nM

CS(=O)(=O)C1(c2ccn(C(=O)NC34CC(c5nc6ccc(Cl)cc6s5)(C3)C4)n2)CC1 [Example 63]
IC50 (HBeAg): 80 nM | IC50 (HBsAg): 110 nM | CC50 at 144 h [1]: 5060 nM

CS(=O)(=O)C1(c2ncc(C(=O)NC34CC(c5nc6ccc(Cl)cc6s5)(C3)C4)o2)CC1 [Example 67, N-[3-(6-chloro-1,3-benzothiazol-2-yl)-1-bicyclo[1.1.1]pentanyl]-2-(1-methylsulfonylcyclopropyl)oxazole-5-carboxamide]
IC50 (HBeAg): 320 nM | IC50 (HBsAg): 400 nM | CC50 at 144 h [1]: 7250 nM

CS(=O)(=O)C(Cl)c1ccc(C(=O)NC23CC(c4nc5cc(Cl)ccc5s4)(C2)C3)o1 (stereo not drawn) [Example 75, 5-(chloro(methylsulfonyl)methyl)-N-(3-(5-chlorobenzo[d]thiazol-2-yl)bicyclo[1.1.1]pentan-1-yl)furan-2-carboxamide]
IC50 (HBeAg): 430 nM | IC50 (HBsAg): 550 nM | CC50 at 144 h [1]: 16800 nM

CS(=O)(=O)C1(c2noc(C(=O)NC34CC(c5nc6ccc(Cl)cc6s5)(C3)C4)n2)CC1 [Example 76, N-[3-(6-chloro-1,3-benzothiazol-2-yl)-1-bicyclo[1.1.1]pentanyl]-3-(1-methylsulfonylcyclopropyl)-1,2,4-oxadiazole-5-carboxamide]
IC50 (HBeAg): 400 nM | IC50 (HBsAg): 700 nM | CC50 at 144 h [1]: 4270 nM

CS(=O)(=O)C1(c2nc(C(=O)NC34CC(c5nc6ccc(Br)cc6s5)(C3)C4)no2)CC1 [Example 77, N-[3-(6-bromo-1,3-benzothiazol-2-yl)-1-bicyclo[1.1.1]pentanyl]-5-(1-methylsulfonylcyclopropyl)-1,2,4-oxadiazole-3-carboxamide]
IC50 (HBeAg): 620 nM | IC50 (HBsAg): 860 nM | CC50 at 144 h [1]: 6490 nM
